Measurements: US11149034B2, “Derivatives of luciferin and methods for their synthesis” (UNIVERSITY OF CAPE TOWN, priority 2017, dated 2021)
Several values for one entry are separate records, joined by “and”; a condition that tells them apart may be missing. Equal entries are not always repeated. Where two headings read alike, the source gives them in different places.

Assays:
[1] = test system: purified wild type (WT) luciferase (Photinus pyralis (luciferase) [Ppy Luc]); experiment: Purified protein luminescence assays (Michaelis-Menten kinetics, relative emission intensity); assay type: biochemical; details: for Vmax / Km: Michaelis-Menten fit; for Km: apparent Km, WT luciferase, read-out: Km (App.); for luminescence output when treated with luciferase: 0.1 μM solution, luciferase in enzyme buffer, 10 nM
Experimental: FIG. 10 is a relative luminescence emission intensity of the core luciferins (6-hydroxy, 6-amino, 6-thiol) at 0.1 μM substrate concentration and at a final luciferase concentration of 10 nM.
FIG. 11 illustrates luminescence output of 0.1 μM of protected D-thioluciferin sulfide, D-thioluciferin homodisulfide, and free D-thioluciferin at a final luciferase concentration of 10 nM (control readings were recorded for substrates in the absence of the luc enzyme). The RLU were determined in triplicate and are represented as the mean±SEM.
FIG. 13 is a Michaelis-Menten graph for D-Thioluciferin. […] The assays were performed in triplicate and are represented as the mean and each curve was fit to the Michaelis-Menten equation by nonlinear regression (GraphPad 5.0) to determine apparent Km and Vmax.
Luminescence assays were initiated by adding 30 μL of purified luciferase in enzyme buffer (20 mM Tris [pH 7.4], 0.1 mM EDTA, 1 mM TCEP, and 0.8 mg/mL BSA) to 30 μL 2× substrate in substrate buffer (20 mM Tris [pH 7.4], 0.1 mM EDTA, 8 mM MgSO4, and 4 mM ATP) in a black 96-well plate. Imaging was performed one minute after enzyme addition using a Xenogen® IVIS-100® at a final enzyme concentration of 10 nM and final substrate concentrations ranging from 0.122 to 250 μM. Data acquisition and analysis was performed with Living Image® software. Data are reported as total flux (p/s) for each ROI corresponding to each well of the 96-well plate.

[2] = test system: purified firefly luciferase (luc) expressed from E. coli; experiment: Bioluminescence emission scans; assay type: biochemical, Photinus pyralis; details: for bioluminescence emission wavelength: FIG. 7, 10 nM luciferase with 100 μM substrate; for λmax: bioluminescence emission with luciferase
Experimental: FIG. 7 is a bioluminescence emission spectrum for 10 nM luciferase with 100 μM D-thioluciferin.
Purified luciferase in enzyme buffer was rapidly injected into a cuvette containing substrate in substrate buffer to a final enzyme concentration of 100 nM and a final substrate concentration of 10 μM. The emission from 400 to 800 nm was recorded in a fluorimeter with closed excitation slits 10 s after injection.

[3] = test system: WT luciferase (Ppy Luc); experiment: Burst kinetics assays / rates of reduction in luminescence; assay type: biochemical, Photinus pyralis
Experimental: FIG. 9 is a burst kinetics profile of purified 10 nM luciferase treated with 100 μM D-thioluciferin.
[…] […] Data acquisition was performed with SIS for 2020n v1.9.0 software. Data are reported as Relative Light Units (RLU). To correct for the wavelength sensitivity of the PMT in the 20/20n, total flux was also measured using the IVIS-100 as described above with a final enzyme concentration of 10 nM and a final substrate concentration of 250 μM. […] The correction factor of each enzyme/substrate pair was calculated by dividing the normalized IVIS data by the normalised 20/20n data. All 20/20n data were then multiplied by their respective correction factors.

[4] = test system: purified firefly luciferase (luc) expressed from E. coli; details: cited from earlier work; for λmax (lit.): literature value
[5] = literature value; cited from earlier work
[6] = Fluorescence spectrophotometry (excitation emission spectra); assay type: physicochemical; details: for fluorescence emission intensity: excitation at 390 nm, FIG. 15
Experimental: The free D-thioluciferin has a greater intensity relative to the sulfide which is promising for further sensor development.
Excitation and emission spectra were recorded on a Varian Cary Eclipse fluorometer equipped with a regulated temperature cell holder and Hellma, Suprasil® quartz fluorescence cuvettes of 10 mm pathlength and 1.5 mL volume capacity. Emission spectra were recorded at an excitation wavelength corresponding to previously recorded absorption maxima. Samples were prepared as a 0.1 mM DMSO solution, unless otherwise stated, and were scanned from 200 nm to 800 nm (Ex. Slit/Em. Slit 5 nm) at a scan rate of 600.00 nm/mn. Data were analysed using Scan Software Version 1.1.

[7] = test system: purified firefly luciferase (10 nM) expressed from E. coli; experiment: Inhibition of firefly luciferase by D-thioluciferin sulfide (thioacrylate); assay type: biochemical, Photinus pyralis; details: D-thioluciferin 10 μM, increasing sulfide
Experimental: FIG. 14 is a bar graph showing potential inhibitory effects of firefly luciferase by D-thioluciferin sulfide (thioacrylate). D-thioluciferin (10 μM) was treated with purified firefly luciferase (10 nM) expressed from E. coli and the luminescence recorded in the absence and presence of the sulifide.

[8] = test system: purified wild type (WT) luciferase (Photinus pyralis (luciferase) [Ppy Luc]); details: cited from earlier work
[9] = FIG. 10, 0.1 μM substrate, 10 nM luciferase
[10] = measured for 15 seconds post-specified time

Compound	Vmax ([1]; 10 nM luciferase)	Km [1]	bioluminescence emission wavelength [2]	λmax [2]	time post-addition of rapid decrease in luminescent activity [3]	Rate 5 min post-addition (rate of reduction in luminescence) [3, 10]	Rate 20 minutes post addition (rate of reduction in luminescence) [3, 10]	λmax (lit.) [4]	Fluorescence (lit.) [5]	luminescence output when treated with luciferase [1]	ability to produce bioluminescence (luciferase substrate) ([1]; FIG. 11)	fluorescence emission intensity [6]	emission signal, fold less intense compared to D-luciferin [1, 9]	further results
O=C(O)[C@H]1CSC(c2nc3ccc(O)cc3s2)=N1 [D-luciferin, (S)-2-(6-hydroxybenzo[d]thiazol-2-yl)-4,5-dihydrothiazole-4-carboxylate]	57 ± 13 RLU/s	8.3 µM and 8 µM	547 nm	553 nm	10 min	9.300 ± 0.9815 RLU/s	0.3400 ± 0.05773 RLU/s	551 nm	528 nm	–	–	–	–	relative luminescence emission intensity, fold greater than both D-aminoluciferin and D-thioluciferin [1, 9]: 100 fold; bioluminescence emission wavelength ([2]; listed as D-Luciferin): 557 nm; relative emission λmax ([4]; background statement): 594 nm
O=C(O)C1CSC(c2nc3ccc(SSc4ccc5nc(C6=NC(C(=O)O)CS6)sc5c4)cc3s2)=N1 [D-thioluciferin disulfide]	–	–	–	–	–	–	–	–	–	much higher luminescence output than its corresponding control	neither of which appeared to be bioluminescent substrates	–	–	–
O=C(/C=C/Sc1ccc2nc(C3=N[C@@H](C(=O)O)CS3)sc2c1)OCc1ccccc1 [D-thioluciferin thioacrylate, (S,E)-2-(6-((3-(benzyloxy)-3-oxoprop-1-en-1-yl)thio)benzo[d]thiazol-2-yl)-4,5-dihydrothiazole-4-carboxylic acid]	–	–	–	–	–	–	–	–	–	negligible	neither of which appeared to be bioluminescent substrates	only weakly fluorescent	–	inhibition of luciferase ([7]; FIG. 14): strongly inhibitory; inhibition of luciferase ([7]; FIG. 14, listed as D-thioluciferin sulfide (thioacrylate)): decrease in emission intensity with increasing concentration of the sulfide
O=C(O)[C@H]1CSC(c2nc3ccc(S)cc3s2)=N1 [D-thioluciferin, (S)-2-(6-mercaptobenzo[d]thiazol-2-yl)-4,5-dihydrothiazole-4-carboxylic acid]	0.7597 ± 0.1071 RLU/s and 0.6661 ± 0.1522 RLU/s	0.117 µM and 0.1 µM	599 nm and 600 nm	599 nm	–	0.0067 RLU/s	0.0022 RLU/s	–	–	–	–	strong fluorescence emission	100 fold	emission, fold greater over the background [1]: > 100 fold; luminescence output, fold greater than protected thioacrylate (sulfide) ([1]; FIG. 11, 0.1 μM, 10 nM luciferase): 90 fold; Km ([1]; listed as D-Thioluciferin): 0.098 ± 0.0147 µM; period over which light of constant intensity is sustained [3]: 20 min; burst kinetics profile ([3]; FIG. 9, 10 nM luciferase, 100 μM substrate): robust initial burst of light followed by sustained light output of much lower intensity; Rate 1 min post-peak emission (rate of reduction in luminescence) [3, 10]: 4.929 ± 0.1584 RLU/s; Fluorescence ([6]; fluorescence emission): 500 nm
Nc1ccc2nc(C3=N[C@@H](C(=O)O)CS3)sc2c1 [D-aminoluciferin, (S)-2-(6-aminobenzo[d]thiazol-2-yl)-4,5-dihydrothiazole-4-carboxylic acid]	13 ± 2.2 RLU/s	0.39 ± 0.08 µM	593 nm	597 nm	1 min	1.216 ± 0.1305 RLU/s	0.1510 ± 0.007506 RLU/s	594 nm	517 nm	–	–	–	100 fold	Vmax (lit.) ([8]; literature value): 169 ± 2.6 photons/min; Km ([8]; literature value, read-out: Km (lit)): 0.62 ± 0.05 µM; Km ([8]; previously calculated, comparison, read-out: Km previously calculated): 0.39 to 0.69 µM
